Test results from patent publication US12448392B2, “Spiropiperidine derivatives” (89BIO LTD, priority 2016, dated 2025).

Molecular target: T1, recombinant human baculovirus-expressed GST-tagged FASN (Homo sapiens, UniProt P49327)
T1 construct: GST
Assay: biochemical
Conditions: not given

T1 sequence (P49327 whole entry): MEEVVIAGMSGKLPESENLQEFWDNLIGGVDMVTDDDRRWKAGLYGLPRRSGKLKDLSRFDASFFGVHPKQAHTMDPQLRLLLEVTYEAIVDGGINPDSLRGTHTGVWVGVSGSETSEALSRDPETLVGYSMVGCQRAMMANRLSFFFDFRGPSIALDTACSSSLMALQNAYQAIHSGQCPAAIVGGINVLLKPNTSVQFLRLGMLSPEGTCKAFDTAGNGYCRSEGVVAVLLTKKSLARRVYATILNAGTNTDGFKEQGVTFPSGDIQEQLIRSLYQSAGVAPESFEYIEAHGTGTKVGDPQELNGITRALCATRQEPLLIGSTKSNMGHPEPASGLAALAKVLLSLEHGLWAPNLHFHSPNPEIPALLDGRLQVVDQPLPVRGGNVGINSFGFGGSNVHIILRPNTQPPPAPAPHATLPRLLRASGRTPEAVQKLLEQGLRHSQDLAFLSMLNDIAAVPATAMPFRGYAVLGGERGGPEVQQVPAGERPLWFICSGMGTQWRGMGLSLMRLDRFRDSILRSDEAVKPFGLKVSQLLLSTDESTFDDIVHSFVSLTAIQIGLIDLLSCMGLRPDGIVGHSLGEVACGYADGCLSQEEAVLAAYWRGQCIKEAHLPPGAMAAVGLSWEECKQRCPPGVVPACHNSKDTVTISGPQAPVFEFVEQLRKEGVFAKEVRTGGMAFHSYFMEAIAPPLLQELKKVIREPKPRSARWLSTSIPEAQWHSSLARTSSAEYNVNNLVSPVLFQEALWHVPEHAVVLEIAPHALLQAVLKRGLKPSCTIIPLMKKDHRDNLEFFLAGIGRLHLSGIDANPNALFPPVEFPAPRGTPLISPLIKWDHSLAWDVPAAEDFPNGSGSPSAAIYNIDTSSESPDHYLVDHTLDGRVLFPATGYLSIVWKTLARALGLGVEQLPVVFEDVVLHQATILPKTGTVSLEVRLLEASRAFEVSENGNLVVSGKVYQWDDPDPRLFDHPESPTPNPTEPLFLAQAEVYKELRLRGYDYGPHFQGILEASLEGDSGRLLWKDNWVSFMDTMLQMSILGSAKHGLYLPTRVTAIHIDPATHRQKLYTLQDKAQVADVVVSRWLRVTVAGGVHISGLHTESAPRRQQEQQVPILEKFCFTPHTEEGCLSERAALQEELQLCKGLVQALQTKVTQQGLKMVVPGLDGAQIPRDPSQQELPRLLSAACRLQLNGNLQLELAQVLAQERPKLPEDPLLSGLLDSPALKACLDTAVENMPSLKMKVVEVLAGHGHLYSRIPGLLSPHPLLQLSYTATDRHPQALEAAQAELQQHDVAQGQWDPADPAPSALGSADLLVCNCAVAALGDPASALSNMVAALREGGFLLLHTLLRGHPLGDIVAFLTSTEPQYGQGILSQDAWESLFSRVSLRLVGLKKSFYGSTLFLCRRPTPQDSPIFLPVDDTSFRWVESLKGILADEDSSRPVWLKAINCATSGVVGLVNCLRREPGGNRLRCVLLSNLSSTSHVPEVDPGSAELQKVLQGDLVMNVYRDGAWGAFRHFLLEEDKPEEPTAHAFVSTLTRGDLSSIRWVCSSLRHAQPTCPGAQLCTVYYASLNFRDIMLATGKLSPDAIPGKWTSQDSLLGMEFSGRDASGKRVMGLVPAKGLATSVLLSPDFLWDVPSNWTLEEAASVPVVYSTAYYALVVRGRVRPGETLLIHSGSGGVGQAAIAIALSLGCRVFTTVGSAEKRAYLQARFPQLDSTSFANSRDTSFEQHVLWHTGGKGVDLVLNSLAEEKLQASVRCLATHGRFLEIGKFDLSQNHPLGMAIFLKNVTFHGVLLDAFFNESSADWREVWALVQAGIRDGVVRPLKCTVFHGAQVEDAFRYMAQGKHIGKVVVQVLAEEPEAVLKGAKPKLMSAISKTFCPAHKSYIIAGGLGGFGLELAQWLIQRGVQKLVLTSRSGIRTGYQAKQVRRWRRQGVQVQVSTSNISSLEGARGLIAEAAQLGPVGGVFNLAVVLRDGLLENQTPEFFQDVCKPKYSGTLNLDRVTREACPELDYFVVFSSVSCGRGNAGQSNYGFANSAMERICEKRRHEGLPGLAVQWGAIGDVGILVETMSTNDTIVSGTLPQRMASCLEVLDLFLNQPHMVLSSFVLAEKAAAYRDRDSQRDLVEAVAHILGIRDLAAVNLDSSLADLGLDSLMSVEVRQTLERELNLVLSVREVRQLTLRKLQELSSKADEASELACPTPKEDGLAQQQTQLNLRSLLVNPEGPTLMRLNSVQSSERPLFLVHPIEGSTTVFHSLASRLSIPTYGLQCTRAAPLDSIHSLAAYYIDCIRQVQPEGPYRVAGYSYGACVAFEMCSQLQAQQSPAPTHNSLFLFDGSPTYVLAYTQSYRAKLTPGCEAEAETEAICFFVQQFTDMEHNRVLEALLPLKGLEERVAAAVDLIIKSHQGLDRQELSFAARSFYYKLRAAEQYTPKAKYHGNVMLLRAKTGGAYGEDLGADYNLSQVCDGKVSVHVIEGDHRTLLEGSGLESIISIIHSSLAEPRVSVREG

With `COc1cc(-c2ccc3cccnc3c2C)cc2c1OC1(CCN(C(N)=O)CC1)OC2` [Example 247, 8-Methoxy-6-(8-methyl-7-quinolyl)spiro[4H-1,3-benzodioxine-2,4′-piperidine]-1′-carboxamide] as the molecule, how does the IC50 read?
Its IC50 is 1000 to 10000 nM.

With `CONC(=O)N1CCC2(CC1)OCc1cc(-c3ccc4c(C)nccc4c3)cc(OC)c1O2` [Example 248] as the molecule, how does the IC50 read?
Its IC50 is 1000 to 10000 nM.

Same assay, conditions: 5 nM FASN, 150 μM NADPH, 10 μM acetyl-CoA, 25 μM malonyl-CoA, 90 minutes incubation; read-out: IC50 data for Compounds of Formula I, Activity

For `CONC(=O)N1CCC2(CCc3cc(-c4ccc5c(C)nccc5c4)cc(F)c3O2)CC1` [Example 242], which IC50 is on record?
The IC50 was 1 to 99 nM.

For `Cc1c(-c2ccc3c(c2F)CCC2(CCN(C(N)=O)CC2)O3)ccc2cccnc12` [Example 243, 5-Fluoro-6-(8-methyl-7-quinolyl)spiro[chromane-2,4′-piperidine]-1′-carboxamide], which IC50 is on record?
Its IC50 is 100 to 999 nM.

For `Cc1cc2c(cc1-c1ccc3cccnc3c1C)CCC1(CCN(C(N)=O)CC1)O2` [Example 244, 7-Methyl-6-(8-methyl-7-quinolyl)spiro[chromane-2,4′-piperidine]-1′-carboxamide], which IC50 is on record?
The IC50 was 1000 to 10000 nM.

With `CONC(=O)N1CCC2(CCc3cc(-c4ccc5cccnc5c4C)c(C)cc3O2)CC1` [Example 245, N-methoxy-7-methyl-6-(8-methyl-7-quinolyl)spiro[chromane-2,4′-piperidine]-1′-carboxamide] as the molecule, how does the IC50 read?
Its IC50 is 100 to 999 nM.

For `CONC(=O)N1CCC2(CCc3cc(-c4ccc5c(C)nccc5c4)c(C)cc3O2)CC1` [Example 246, N-Methoxy-7-methyl-6-(1-methyl-6-isoquinolyl)spiro[chromane-2,4′-piperidine]-1′-carboxamide], which IC50 is on record?
Its IC50 is 100 to 999 nM.

Which IC50 does the source give for `Cc1c(-c2cc(Cl)c3c(c2)CCC2(CCN(C(N)=O)CC2)O3)ccc2cccnc12` [Example 249, 8-chloro-6-(8-methyl-7-quinolyl)spiro[chromane-2,4′-piperidine]-1′-carboxamide] here?
Its IC50 is 1000 to 10000 nM.

Which IC50 does the source give for `CONC(=O)N1CCC2(CCc3cc(-c4ccc5cccnc5c4C)cc(Cl)c3O2)CC1` [Example 250, 8-Chloro-N-methoxy-6-(8-methyl-7-quinolyl)spiro[chromane-2,4′-piperidine]-1′-carboxamide] here?
Its IC50 is 100 to 999 nM.

With `Cc1c(-c2ccc3c(c2)CCC2(CCN(C(N)=O)CC2)O3)ccc2c(O)ccnc12` [Example 251, 6-(4-Hydroxy-8-methyl-7-quinolyl)spiro[chromane-2,4′-piperidine]-1′-carboxamide] as the molecule, how does the IC50 read?
The IC50 was 1000 to 10000 nM.

System: viral replication (Flaviviridae family)
Assay: not given
Conditions: inhibition of FASN by small molecule inhibitors; cited from earlier work

With `C/C=C/C/C=C/CCC(=O)[C@H]1O[C@H]1C(N)=O` [Cerulenin] as the molecule, how does the “inhibition of viral replication” value read?
Its value is “strong inhibition of viral replication”.

With `CCCCCCCCCCC[C@@H](C[C@@H]1OC(=O)[C@H]1CCCCCC)OC(=O)[C@H](CC(C)C)NC=O` [Orlistat] as the molecule, how does the “inhibition of viral replication” value read?
The value was “strong inhibition of viral replication”.

System: not given
Assay: not given
Conditions: non-specific irreversible FASN inhibitors; cited from earlier work

With `C/C=C/C/C=C/CCC(=O)[C@H]1O[C@H]1C(N)=O` [Cerulenin] as the molecule, how does the “brain levels of orexigenic neuropeptides” value read?
Its value is “decrease brain levels of orexigenic neuropeptides”.

What about the food intake of the same molecule?
Its food intake is “decrease food intake”.

With `C=C1C(=O)OC(CCCCCCCC)C1C(=O)O` (stereo not shown) [Example C-75] as the molecule, how does the “brain levels of orexigenic neuropeptides” value read?
Its value is “decrease brain levels of orexigenic neuropeptides”.

What about the food intake of the same molecule?
The food intake was “decrease food intake”.
